Laboratory results as given in ChEMBL document CHEMBL1255447, “Efflux pumps, OprD porin, AmpC beta-lactamase, and multiresistance in Pseudomonas aeruginosa isolates from cystic fibrosis patients” (2010).
In brackets after ≈: the same amount, converted by molar mass.

What was measured:
[1] = tested on: Pseudomonas aeruginosa; assay: Antimicrobial activity against Pseudomonas aeruginosa isolate 1693c from fibrosis patient by Etest; type: functional
[2] = tested on: Pseudomonas aeruginosa; assay: Antimicrobial activity against Pseudomonas aeruginosa isolate 1529c from fibrosis patient by Etest; type: functional
[3] = tested on: Pseudomonas aeruginosa; assay: Antimicrobial activity against Pseudomonas aeruginosa isolate 17145c from fibrosis patient by Etest; type: functional
[4] = tested on: Pseudomonas aeruginosa; assay: Antimicrobial activity against Pseudomonas aeruginosa isolate 1681c from fibrosis patient by Etest; type: functional
[5] = tested on: Pseudomonas aeruginosa; assay: Antimicrobial activity against Pseudomonas aeruginosa isolate 1240 from fibrosis patient by Etest; type: functional
[6] = tested on: Pseudomonas aeruginosa; assay: Antimicrobial activity against Pseudomonas aeruginosa isolate 1530c from fibrosis patient by Etest; type: functional
[7] = tested on: Pseudomonas aeruginosa; assay: microbe, parasite or virus in culture; details: isolate 13120
Description: Antimicrobial activity against Pseudomonas aeruginosa isolate 13120 from fibrosis patient by Etest

[8] = tested on: Pseudomonas aeruginosa; assay: Antimicrobial activity against Pseudomonas aeruginosa isolate 16008 from fibrosis patient by Etest; type: functional
[9] = tested on: Pseudomonas aeruginosa; assay: Antimicrobial activity against Pseudomonas aeruginosa isolate 1253 from fibrosis patient by Etest; type: functional
[10] = tested on: Pseudomonas aeruginosa; assay: Antimicrobial activity against Pseudomonas aeruginosa isolate 1247c from fibrosis patient by Etest; type: functional
[11] = tested on: Pseudomonas aeruginosa; assay: Antimicrobial activity against Pseudomonas aeruginosa AHP Etest; type: functional
[12] = tested on: Pseudomonas aeruginosa; assay: Antimicrobial activity against Pseudomonas aeruginosa isolate 1712c from fibrosis patient by Etest; type: functional
[13] = tested on: Pseudomonas aeruginosa; assay: Antimicrobial activity against Pseudomonas aeruginosa isolate 1495c from fibrosis patient by Etest; type: functional
[14] = tested on: Pseudomonas aeruginosa; assay: Antimicrobial activity against Pseudomonas aeruginosa isolate 1665 from fibrosis patient by Etest; type: functional
[15] = tested on: Pseudomonas aeruginosa; assay: Antimicrobial activity against Pseudomonas aeruginosa isolate 1726 from fibrosis patient by Etest; type: functional
[16] = tested on: Pseudomonas aeruginosa; assay: Antimicrobial activity against Pseudomonas aeruginosa M1251 by Etest
[17] = tested on: Pseudomonas aeruginosa; assay: microbe, parasite or virus in culture; details: 2779-con
Description: Antimicrobial activity against Pseudomonas aeruginosa 2779-con by Etest

[18] = tested on: Pseudomonas aeruginosa; assay: Antimicrobial activity against Pseudomonas aeruginosa isolate 1352c from fibrosis patient by Etest; type: functional
[19] = tested on: Pseudomonas aeruginosa; assay: Antimicrobial activity against Pseudomonas aeruginosa isolate 13167 from fibrosis patient by Etest; type: functional
[20] = tested on: Pseudomonas aeruginosa; assay: Antimicrobial activity against Pseudomonas aeruginosa isolate 15107 from fibrosis patient by Etest; type: functional
[21] = tested on: Pseudomonas aeruginosa; assay: Antimicrobial activity against Pseudomonas aeruginosa isolate 1248c from fibrosis patient by Etest; type: functional
[22] = tested on: Pseudomonas aeruginosa; assay: Antimicrobial activity against Pseudomonas aeruginosa isolate 3149 from fibrosis patient by Etest; type: functional
[23] = tested on: Pseudomonas aeruginosa; assay: Antimicrobial activity against Pseudomonas aeruginosa isolate 15110c from fibrosis patient by Etest; type: functional
[24] = tested on: Pseudomonas aeruginosa; assay: Antimicrobial activity against Pseudomonas aeruginosa Z799/61 by Etest; type: functional
[25] = tested on: Pseudomonas aeruginosa; assay: Antimicrobial activity against Pseudomonas aeruginosa isolate 17112 from fibrosis patient by Etest; type: functional
[26] = tested on: Pseudomonas aeruginosa; assay: Antimicrobial activity against Pseudomonas aeruginosa isolate 12142c from fibrosis patient by Etest; type: functional
[27] = tested on: Pseudomonas aeruginosa; assay: Antimicrobial activity against Pseudomonas aeruginosa R20 Etest; type: functional
[28] = tested on: Pseudomonas aeruginosa; assay: Antimicrobial activity against Pseudomonas aeruginosa isolate 12102 from fibrosis patient by Etest; type: functional
[29] = tested on: Pseudomonas aeruginosa; assay: Antimicrobial activity against Pseudomonas aeruginosa 1405-con D2 by Etest; type: functional
[30] = tested on: Pseudomonas aeruginosa; assay: Antimicrobial activity against Pseudomonas aeruginosa isolate 14169c from fibrosis patient by Etest; type: functional
[31] = tested on: Pseudomonas aeruginosa; assay: Antimicrobial activity against Pseudomonas aeruginosa R70 Etest; type: functional
[32] = tested on: Pseudomonas aeruginosa; assay: Antimicrobial activity against Pseudomonas aeruginosa isolate 1333c from fibrosis patient by Etest; type: functional

With C[C@H]1[C@H](NC(=O)/C(=N\OC(C)(C)C(=O)O)c2csc(N)n2)C(=O)N1S(=O)(=O)O [AZTREONAM] the MIC [1] was 1 µg/mL (≈ 2.3 µM), the MIC [2] was 0.5 µg/mL (≈ 1.15 µM) and the MIC [3] was 0.5 µg/mL (≈ 1.15 µM). The MIC [4] was 32 µg/mL (≈ 73.5 µM), the MIC [5] was 4 µg/mL (≈ 9.19 µM) and the MIC [6] was 2 µg/mL (≈ 4.59 µM). For the same compound, the MIC [7] was 16 µg/mL (≈ 36.7 µM), the MIC [8] was 0.5 µg/mL (≈ 1.15 µM) and the MIC [9] was 16 µg/mL (≈ 36.7 µM). For the same compound, the MIC [10] was 4 µg/mL (≈ 9.19 µM), the MIC [11] was 0.5 µg/mL (≈ 1.15 µM) and the MIC [12] was greater than 64 µg/mL. For the same compound, the MIC [13] was greater than 64 µg/mL, the MIC [14] was greater than 64 µg/mL and the MIC [15] was 0.5 µg/mL (≈ 1.15 µM). It also gave an MIC [16] of 32 µg/mL (≈ 73.5 µM), an MIC [17] of 32 µg/mL (≈ 73.5 µM) and an MIC [18] of 32 µg/mL (≈ 73.5 µM). It also gave an MIC [19] of 16 µg/mL (≈ 36.7 µM), an MIC [20] of 2 µg/mL (≈ 4.59 µM) and an MIC [21] greater than 64 µg/mL. For the same compound, the MIC [22] was 64 µg/mL (≈ 147 µM), the MIC [23] was greater than 64 µg/mL and the MIC [24] was no more than 0.12 µg/mL. It also gave an MIC [25] greater than 64 µg/mL and an MIC [26] greater than 64 µg/mL.

With CC1(C)S[C@@H]2[C@H](NC(=O)C(C(=O)O)c3ccccc3)C(=O)N2[C@H]1C(=O)O (stereo partly drawn) [CARBENICILLIN] the MIC [1] was 128 µg/mL (≈ 338 µM), the MIC [2] was 8 µg/mL (≈ 21.1 µM) and the MIC [3] was no more than 16 µg/mL. The MIC [27] was 64 µg/mL (≈ 169 µM), the MIC [4] was 512 µg/mL (≈ 1350 µM) and the MIC [5] was 128 µg/mL (≈ 338 µM). The MIC [6] was 64 µg/mL (≈ 169 µM), the MIC [7] was 256 µg/mL (≈ 677 µM) and the MIC [8] was no more than 16 µg/mL. The MIC [9] was 256 µg/mL (≈ 677 µM), the MIC [28] was 256 µg/mL (≈ 677 µM) and the MIC [10] was 128 µg/mL (≈ 338 µM). For the same compound, the MIC [11] was 32 µg/mL (≈ 84.6 µM), the MIC [12] was greater than 512 µg/mL and the MIC [29] was 512 µg/mL (≈ 1350 µM). It also gave an MIC [13] greater than 512 µg/mL, an MIC [14] greater than 512 µg/mL and an MIC [15] of no more than 16 µg/mL. It also gave an MIC [30] of 512 µg/mL (≈ 1350 µM), an MIC [16] of 512 µg/mL (≈ 1350 µM) and an MIC [17] of 128 µg/mL (≈ 338 µM). For the same compound, the MIC [31] was greater than 512 µg/mL, the MIC [32] was greater than 512 µg/mL and the MIC [18] was 512 µg/mL (≈ 1350 µM). The MIC [19] was greater than 512 µg/mL, the MIC [20] was 128 µg/mL (≈ 338 µM) and the MIC [21] was greater than 512 µg/mL. The MIC [22] was greater than 512 µg/mL, the MIC [23] was greater than 512 µg/mL and the MIC [24] was no more than 16 µg/mL. It also gave an MIC [25] of 512 µg/mL (≈ 1350 µM) and an MIC [26] greater than 512 µg/mL.

O=C(O)c1cn(C2CC2)c2cc(N3CCNCC3)c(F)cc2c1=O [CIPROFLOXACIN] was tested, and the MIC [1] was 1 µg/mL (≈ 3.02 µM), the MIC [3] was 4 µg/mL (≈ 12.1 µM) and the MIC [27] was no more than 0.12 µg/mL. For the same compound, the MIC [8] was 4 µg/mL (≈ 12.1 µM), the MIC [10] was 4 µg/mL (≈ 12.1 µM) and the MIC [11] was no more than 0.12 µg/mL. The MIC [12] was 4 µg/mL (≈ 12.1 µM), the MIC [13] was 4 µg/mL (≈ 12.1 µM) and the MIC [14] was 4 µg/mL (≈ 12.1 µM). The MIC [30] was 1 µg/mL (≈ 3.02 µM), the MIC [17] was no more than 0.12 µg/mL and the MIC [21] was 4 µg/mL (≈ 12.1 µM). For the same compound, the MIC [22] was greater than 8 µg/mL, the MIC [24] was no more than 0.12 µg/mL and the MIC [26] was 4 µg/mL (≈ 12.1 µM).
